Source: patent publication US12391799B2, “Peptoid polymers and methods of use” (X-Therma, Inc., priority 2017, dated 2025)
Numbered stars: 1 amine (or outer) side, 2 acyl side, 3 side chain; on linkers, the order of the positions; unused ones are H or OH. Square brackets hold non-standard residues; d marks the D form. Peptide text beside a SMILES is read from it. X1 = CC(O)CN(CC(=O)[*:2])[*:1]; NPrGly = CCCNCC(=O)O; Sar = CNCC(=O)O

Key:
[1] = Vitrification screening assay (critical EG concentration); assay type: physicochemical; settings: for Critical Ethylene Glycol Concentration: lowest EG for complete vitrification of 20 μL sample, 5 mg/mL peptoid in formulation, liquid nitrogen immersion
Procedure: As another means of increasing the throughput of library analysis, a vitrification screening assay was performed to evaluate anti-icing efficacy. For these experiments the compounds named “Compound 11,” “Compound 12,” “Compound 25,” Compound 26,” “Compound 27,” “Compound 28,” “Compound 60,” “Compound 62,” “Compound 63,” “Compound 64,” “Compound 69,” “Compound 70,” “Compound 71,” “Compound 72,” “Compound 73,” “Compound 74,” “Compound 75,” “Compound 76,” “Compound 77,” “Compound 78,” “Compound 81,” “Compound 82,” “Compound 83,” “Compound 84,” and “Compound 85” were tested.
For these experiments, 20 μL samples were flash frozen by liquid immersion in liquid nitrogen. Ethylene glycol (EG) concentrations between 5% and 25% (v/v) were used. A concentration of 5 mg/mL of peptoid polymer compounds were used in formulation. Table 12 lists the lowest concentration of EG necessary to bring about complete vitrification of a 20 μL sample with peptoid polymer in formulation, referred to as the “critical EG concentration.” A sample of formulation without the presence of a peptoid polymer was only able to bring about vitrification at 20% or more EG. Peptoid polymers of interest were able to bring about vitrification within formulas containing EG when the concentration of EG was lower than 20%.

[2] = system: HEK293 cells; experiment: HEK293 survival after storage at −80° C. for 3 days (Alamar Blue); assay type: cell-based, human; settings: 1% peptoid in XT Formula, HEK293 stored at −80° C. for 3 days, vs. XT Formula alone
Procedure: Several compounds were examined in XT Formula at 1% concentration (i.e., 1% peptoid polymer concentration) for their effects on the cryopreservation of HEK293 cells, an adherent cell line derived from human embryonic kidney cells. In particular, the effects of these compounds on the survival of HEK293 cells stored at −80° C. for 3 days were evaluated. An Alamar Blue assay was used to assess cell survival 1 day after stored cells were thawed. A 10% DMSO formula and DMEM cell media only were used as controls.

[3] = system: K562 cells; experiment: Cell toxicity assay in K562 cell culture; assay type: cell-based; settings: 24 hours at 37° C. and 5% CO2
Procedure: The cytotoxicity of several compounds were evaluated using a typical cell toxicity assay in K562 cell culture. […] As a positive control, some cells were incubated without any peptoid polymer (DMEM). For a negative control, cells were incubated with DMSO (DMEM+10% DMSO).

[4] = system: K562 cells; experiment: K562 viability after storage at −20° C. for 3 days (Alamar Blue); assay type: cell-based; settings: 1% peptoid in XT Formula, K562 stored at −20° C. for 3 days, vs. XT Formula alone
Procedure: Several compounds were examined in XT Formula at 1% concentration (i.e., 1% peptoid polymer concentration) for their ability to increase the viability of cells subjected to super-cooled storage. XT Formula contains HTK buffer, among other components. In particular, the effects of these compounds on the viability of K562 cells stored at −20° C. for 3 days were evaluated. An Alamar Blue assay was used to assess cell viability 7 days after stored cells were thawed.

[5] = system: HEK 293 cell line; experiment: Cell-based cytotoxicity assay (MTT); parameters: species or system human; settings: serial dilutions in culture media, 37° C., about 3 to 5 days
Procedure: A Tecan Genesis Robotic Workstation was used to prepare solutions in 96- and 384-well plates. Solutions contained culture media, buffers, a cryoprotectant composition (Compound 12) or DMSO. Solutions were adjusted to the desired pH. Serial dilutions were performed to obtain solutions containing various concentrations of Compound 12 and DMSO. Control experiments were performed using only culture media.
For these experiments, cells were seeded at low density (i.e., 10% confluence), exposed to solutions containing Compound 12 or DMSO, and placed in a 37° C. incubator. The cells were allowed to grow until control cells that were treated only with empty vehicle approached 70% confluence (typically about 3 to 5 days). Assessment for compound cytotoxicity was via MTT assay.

SMILES | Critical Ethylene Glycol Concentration [1] | cell survival 1 day after thaw [2] | cell viability 7 days after thaw [4] | further results
CCC(C)N(CC(=O)N(CC(=O)N(CC(=O)N(CC(=O)N(CC(=O)N(CC(=O)N(CC(N)=O)CC(C)O)CC(C)O)C(C)CC)C(C)CC)CC(C)O)CC(C)O)C(=O)CN(C(=O)CN(CC(C)O)C(=O)CNCC(C)O)C(C)CC (stereo not shown) [Compound 11] | 15.0% (ν/ν) | improved cell survival compared to XT Formula alone |  | 
CNCC(=O)N(C)CC(=O)N(C)CC(=O)N(CC(=O)N(CC(=O)N(CC(=O)N(C)CC(=O)N(C)CC(=O)N(C)CC(=O)N(CC(N)=O)CC(C)O)CC(C)O)CC(C)O)CC(C)O (stereo not shown) [Compound 15] (H-[Sar][Sar][Sar][X1][X1][X1][Sar][Sar][Sar][X1]-NH2) |  |  |  | cytotoxicity (cell persistence) ([3]; 1% concentration): persisted about as well as cell incubated in cell culture media alone (DMEM)
CCCNCC(=O)N(CCC)CC(=O)N(CC(=O)N(CC(=O)N(CCC)CC(=O)N(CCC)CC(=O)N(CC(=O)N(CC(=O)N(CCC)CC(=O)N(CCC)CC(N)=O)CC(C)O)CC(C)O)CC(C)O)CC(C)O (stereo not drawn) [Compound 27, Npr-Npr-Nhp-Nhp-Npr-Npr-Nhp-Nhp-Npr-Npr] (H-[NPrGly][NPrGly][X1][X1][NPrGly][NPrGly][X1][X1][NPrGly][NPrGly]-NH2) | 12.5% (ν/ν) | improved cell survival compared to XT Formula alone | improved cell viability compared to XT Formula alone | 
CCC(C)NCC(=O)N(CC(=O)N(CCOC)CC(=O)N(CCOC)CC(=O)N(CC(=O)N(CC(=O)N(CCOC)CC(=O)N(CCOC)CC(=O)N(CC(=O)N(CC(N)=O)C(C)CC)C(C)CC)C(C)CC)C(C)CC)C(C)CC (stereo not drawn) [Compound 62, Nsb-Nsb-Nmo-Nmo-Nsb-Nsb-Nmo-Nmo-Nsb-Nsb] | 12.5% (ν/ν) | improved cell survival compared to XT Formula alone | improved cell viability compared to XT Formula alone | cytotoxicity (cell persistence) ([3]; 1% concentration): persisted about as well as cell incubated in cell culture media alone (DMEM); EG required to permit vitrification ([1]; 20 μL sample, 5 mg/mL peptoid, formulation without peptoid needs 20% or more EG): required significantly less EG in order to permit vitrification
C[S+](C)[O-] [DMSO, dimethyl sulfoxide, reference compound] |  |  |  | cytotoxicity (cell persistence) ([3]; DMEM+10% DMSO): suffered significant toxicity; toxicity by MTT assay [5]: did not allow for warm survival for an extended period of time at any concentration above 0.5% (v/v)
CCC(C)NCC(=O)N(CC(=O)N(CCO)CC(=O)N(CCO)CC(=O)N(CC(=O)N(CC(=O)N(CCO)CC(=O)N(CCO)CC(=O)N(CC(=O)N(CC(N)=O)C(C)CC)C(C)CC)C(C)CC)C(C)CC)C(C)CC (stereo not drawn) [Compound 74, Nsb-Nsb-Nhe-Nhe-Nsb-Nsb-Nhe-Nhe-Nsb-Nsb] | 15.0% (ν/ν) |  | improved cell viability compared to XT Formula alone | 
CCC(C)NCC(=O)N(CC(=O)N(CC(=O)N(CC(=O)N(CC(=O)N(CC(=O)N(CC(=O)N(CC(=O)N(CC(=O)N(CC(N)=O)C(C)CC)C(C)CC)C(C)CO)C(C)CO)C(C)CC)C(C)CC)C(C)CO)C(C)CO)C(C)CC (stereo not drawn) [Compound 75, Nsb-Nsb-Nyp-Nyp-Nsb-Nsb-Nyp-Nyp-Nsb-Nsb] | 15.0% (ν/ν) | improved cell survival compared to XT Formula alone |  | 
CNCC(=O)N(C)CC(=O)N(CC(=O)N(CC(=O)N(C)CC(=O)N(C)CC(=O)N(CC(=O)N(CC(=O)N(C)CC(=O)N(C)CC(N)=O)CC(C)O)CC(C)O)CC(C)O)CC(C)O (stereo not drawn) [Compound 64, Nme-Nme-Nhp-Nhp-Nme-Nme-Nhp-Nhp-Nme-Nme] (H-[Sar][Sar][X1][X1][Sar][Sar][X1][X1][Sar][Sar]-NH2) | 17.5% (ν/ν) | improved cell survival compared to XT Formula alone |  | 
